Results: US7105547B2, “Antimicrobial 1-aryl dihydropyridone compounds” (Pharmacia and Upjohn Company, priority 2002, dated 2006)
Values after ≈ are worked out from the molar mass of the structure shown. Where two headings read alike, the source gives them in different places.

Experiments:
HINF 30063 = assay: MIC by agar dilution against HINF 30063; type: cell-based, H. influenzae; conditions: Haemophilus influenzae, read-out: HINF 30063 MIC (Minimum Inhibitory Concentration)
Source text: (§1) Compounds of this invention have useful activity against a variety of organisms. The in vitro activity of compounds of this invention can be assessed by standard testing procedures such as the determination of minimum inhibitory concentration (MIC) by agar dilution as described in “Approved Standard. Methods for Dilution Antimicrobial Susceptibility Tests for Bacteria That Grow Aerobically”, 3rd. ed., published 1993 by the National Committee for Clinical Laboratory Standards, Villanova, Pa., USA.

[1] = test system: Staphylococcus aureus UC9213 (SAUR 9213); assay: MIC by agar dilution against Staphylococcus aureus UC9213; type: cell-based; conditions: read-out: SAUR 9213 MIC (Minimum Inhibitory Concentration)
Source text: as §1

SPNE 9912 = assay: MIC by agar dilution against SPNE 9912; type: cell-based; conditions: Streptococcus pneumoniae, read-out: SPNE 9912 MIC (Minimum Inhibitory Concentration)
Source text: as §1

MIC [1] | MIC (SPNE 9912) | MIC (HINF 30063; HINF 30063, agar dilution) | Structure (SMILES) | MIC (HINF 30063)
1 µg/mL (≈ 2.77 µM) | 0.5 µg/mL (≈ 1.38 µM) | 2 µg/mL (≈ 5.53 µM) | CCC(=O)NC[C@H]1CN(c2ccc(N3C=CC(=O)CC3)c(F)c2)C(=O)O1 [Example 4, N-{3-[3-fluoro-4-(4-oxo-3,4-dihydro-2H-pyridin-1-yl)-phenyl]-2-oxo-oxazolidin-5-ylmethyl}-propionamide] | 
4 µg/mL (≈ 11.6 µM) | 0.5 µg/mL (≈ 1.46 µM) | 4 µg/mL (≈ 11.6 µM) | CCC(=O)NC[C@H]1CN(c2ccc(N3C=CC(=O)CC3)cc2)C(=O)O1 [Example 12, N-{2-oxo-3-[4-(4-oxo-3,4-dihydro-2H-pyridin-1-yl)-phenyl]-oxazolidin-5-ylmethyl}-propionamide] | 
2 µg/mL (≈ 5.5 µM) | 0.5 µg/mL (≈ 1.38 µM) | 8 µg/mL (≈ 22 µM) | COC(=O)NC[C@H]1CN(c2ccc(N3C=CC(=O)CC3)c(F)c2)C(=O)O1 [Example 7, {3-[3-fluoro-4-(4-oxo-3,4-dihydro-2H-pyridin-1-yl)-phenyl]-2-oxo-oxazolidin-5-ylmethyl}-carbamic Acid Methyl Ester] | 
2 µg/mL (≈ 5.47 µM) | 0.5 µg/mL (≈ 1.37 µM) | 4 µg/mL (≈ 10.9 µM) | O=C1C=CN(c2ccc(N3C[C@H](CNC(=O)C(F)F)OC3=O)cc2)CC1 [Example 11, 2,2-difluoro-N-{2-oxo-3-[4-(4-oxo-3,4-dihydro-2H-pyridin-1-yl)-phenyl]-oxazolidin-5-ylmethyl}-acetamide] | 
2 µg/mL (≈ 5.76 µM) | 0.25 µg/mL (≈ 0.72 µM) | 4 µg/mL (≈ 11.5 µM) | CC(=O)NC[C@H]1CN(c2ccc(N3C=CC(=O)CC3)c(F)c2)C(=O)O1 [Example 1, N-{3-[3-fluoro-4-(4-oxo-3,4-dihydro-2H-pyridin-1-yl)-phenyl]-2-oxo-oxazolidin-5-ylmethyl}-acetamide] | 
1 µg/mL (≈ 2.8 µM) | 0.25 µg/mL (≈ 0.7 µM) | 8 µg/mL (≈ 22.4 µM) | O=C1C=CN(c2ccc(N3C[C@H](Cn4ccnn4)OC3=O)cc2F)CC1 [Example 16, 1-{2-fluoro-4-[(5R)-2-oxo-5-(1H-1,2,3-triazol-1-ylmethyl)-1,3-oxazolidin-3-yl]phenyl}-2,3-dihydropyridin-4(1H)-one] | 
2 µg/mL (≈ 5.02 µM) | 0.25 µg/mL (≈ 0.628 µM) | 2 µg/mL (≈ 5.02 µM) | O=C1C=CN(c2ccc(N3C[C@H](CNC(=O)C(Cl)Cl)OC3=O)cc2)CC1 [Example 8, 2,2-dichloro-N-{2-oxo-3-[4-(4-oxo-3,4-dihydro-2H-pyridin-1-yl)-phenyl]-oxazolidin-5-ylmethyl}-acetamide] | 
2 µg/mL (≈ 6.07 µM) | 0.5 µg/mL (≈ 1.52 µM) | 4 µg/mL (≈ 12.1 µM) | CC(=O)NC[C@H]1CN(c2ccc(N3C=CC(=O)CC3)cc2)C(=O)O1 [Example 9, N-{2-oxo-3-[4-(4-oxo-3,4-dihydro-2H-pyridin-1-yl)-phenyl]-oxazolidin-5-ylmethyl}-acetamide] | 
1 µg/mL (≈ 2.95 µM) | 1 µg/mL (≈ 2.95 µM) | 8 µg/mL (≈ 23.6 µM) | O=C1C=CN(c2ccc(N3C[C@H](Cn4ccnn4)OC3=O)cc2)CC1 [Example 17, 1-{4-[(5R)-2-oxo-5-(1H-1,2,3-triazol-1-ylmethyl)-1,3-oxazolidin-3-yl]phenyl}-2,3-dihydropyridin-4(1H)-one] | 
1 µg/mL (≈ 2.62 µM) | 0.25 µg/mL (≈ 0.655 µM) | 4 µg/mL (≈ 10.5 µM) | O=C1C=CN(c2ccc(N3C[C@H](CNC(=S)C(F)F)OC3=O)cc2)CC1 [Example 10, 2,2-difluoro-N-{2-oxo-3-[4-(4-oxo-3,4-dihydro-2H-pyridin-1-yl)-phenyl]-oxazolidin-5-ylmethyl}-thioacetamide] | 

More lines, now with the values behind:

Structure (SMILES) | MIC [1] | MIC (SPNE 9912) | MIC (HINF 30063; HINF 30063, agar dilution) | MIC (HINF 30063)
O=C1C=CN(c2ccc(N3C[C@H](CNC(=O)C(F)F)OC3=O)cc2F)CC1 [Example 3, N-{3-[3-fluoro-4-(4-oxo-3,4-dihydro-2H-pyridin-1-yl)-phenyl]-2-oxo-oxazolidin-5-ylmethyl}-difluoroacetamide] | 1 µg/mL (≈ 2.61 µM) | 0.25 µg/mL (≈ 0.652 µM) |  | 2 µg/mL (≈ 5.22 µM)
O=C1C=CN(c2c(F)cc(N3C[C@H](CNC(=O)C(F)F)OC3=O)cc2F)CC1 [Example 13, N-{3-[3,5-difluoro-4-(4-oxo-3,4-dihydro-2H-pyridin-1-yl)-phenyl]-2-oxo-oxazolidin-5-ylmethyl}-2,2-difluoro-acetamide] | 2 µg/mL (≈ 4.98 µM) | 0.25 µg/mL (≈ 0.623 µM) | 8 µg/mL (≈ 19.9 µM) | 
O=C1C=CN(c2ccc(N3C[C@H](CNC(=S)C(F)F)OC3=O)cc2F)CC1 [Example 6, 2,2-difluoro-N-{3-[3-fluoro-4-(4-oxo-3,4-dihydro-2H-pyridin-1-yl)-phenyl]-2-oxo-oxazolidin-5-ylmethyl}-thioacetamide] | 1 µg/mL (≈ 2.5 µM) | 0.125 µg/mL (≈ 0.313 µM) | 4 µg/mL (≈ 10 µM) | 
O=C1C=CN(c2ccc(N3C[C@H](CNC(=O)C(Cl)Cl)OC3=O)cc2F)CC1 [Example 5, 2,2-dichloro-N-{3-[3-fluoro-4-(4-oxo-3,4-dihydro-2H-pyridin-1-yl)-phenyl]-2-oxo-oxazolidin-5-ylmethyl}-acetamide] | 1 µg/mL (≈ 2.4 µM) | 0.25 µg/mL (≈ 0.601 µM) | 1 µg/mL (≈ 2.4 µM) | 
O=C1C=CN(c2c(F)cc(N3C[C@H](CNC(=S)C(F)F)OC3=O)cc2F)CC1 [Example 14, N-{3-[3,5-difluoro-4-(4-oxo-3,4-dihydro-2H-pyridin-1-yl)-phenyl]-2-oxo-oxazolidin-5-ylmethyl}-2,2-difluoro-thioacetamide] | 0.5 µg/mL (≈ 1.2 µM) | 0.25 µg/mL (≈ 0.599 µM) | 8 µg/mL (≈ 19.2 µM) | 
CC(=O)NC[C@H]1CN(c2cc(F)c(N3C=CC(=O)CC3)c(F)c2)C(=O)O1 [Example 2, N-{3-[3,5-diluoro-4-(4-oxo-3,4-dihydro-2H-pyridin-1-yl)-phenyl]-2-oxo-oxazolidin-5-ylmethyl}-acetamide] | 1 µg/mL (≈ 2.74 µM) | 0.5 µg/mL (≈ 1.37 µM) | 8 µg/mL (≈ 21.9 µM) | 
O=C1C=CN(c2c(F)cc(N3C[C@H](CNC(=O)C(Cl)Cl)OC3=O)cc2F)CC1 [Example 15, 2,2-dichloro-N-{3-[3,5-difluoro-4-(4-oxo-3,4-dihydro-2H-pyridin-1-yl)-phenyl]-2-oxo-oxazolidin-5-ylmethyl}-acetamide] | 2 µg/mL (≈ 4.61 µM) | 0.25 µg/mL (≈ 0.576 µM) | 4 µg/mL (≈ 9.21 µM) | 
